This note sets out measurements from US20150038430A1, “THERAPEUTIC PEPTIDOMIMETIC MACROCYCLES” (AILERON Therapeutics, Inc., priority 2008, published 2015).

The subject of one test is DHL-6. In kind it is cell-based, human. As to conditions: 24 h. In a few lines:
(§1)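 Viability is determined after a 24 h, 37 °C treatment of 4000 cells/well in Opti-MEM with or without 2% human serum. Final macrocycle concentrations span 0.6–20 μM serum-free and 1.5–50 μM in serum. EC50 comes from CellTiter-Glo signal as percentage of DMSO-treated cells, run in duplicate.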

The next test deals with Jurkat. In kind it is cell-based, human. Particulars: 24 h. In outline:
as §1

Another test deals with MDA-MB231-Met. In kind it is cell-based, human. As to conditions: 24 h. In a few lines:
as §1

A further test relates to Molt-4. In kind it is cell-based, human. Particulars: 24 h. In a few lines:
as §1

The subject of the next test is NCI-H82 (SCLC-MCL1+). It is filed as cell-based, human. As to conditions: 24 h. In a few lines:
as §1

For another test, the system named is OVCAR8. In kind it is cell-based, human. As to conditions: 24 h. In outline:
as §1

In the next test the test system is PC3. It is filed as cell-based, human. As to conditions: 24 h. In a few lines: as §1
For a further test, the system named is RS4;11. In kind it is cell-based, human. As to conditions: 24 h. In outline:
as §1

The next test has as its system Raji. It is filed as cell-based, human. Particulars: 24 h. In outline:
as §1

In another test the test system is SEMK2. It is filed as cell-based, human. As to conditions: 24 h. In outline: as §1
Another test has as its system NCI-H128. The experiment in a line: MTT cell viability assay, NCI-H128. In kind it is cell-based, human. As to conditions: 20 μM, MTT 48 hrs, FIG. 1. The protocol: (§2) Cell viability assays shown in FIGS. 1-32 were performed according to the following protocol. Tumor cell lines were grown in specific serum-supplemented media (growth media) as necessary. A day prior to the initiation of the study, cells were plated at optimal cell density (15,000 to 25,000 cells/well) in 200 μl growth media in microtiter plates. The next day, cells were washed twice in serum-free/phenol red-free RPMI complete media (assay buffer) and a final volume of 100 μl assay buffer was added to each well. Human peripheral blood lymphocytes (hPBLs) were isolated from Buffy coats (San Diego Blood Bank) using Ficoll-Paque gradient separation and plated on the day of the experiment at 25,000 cells/well.
(§3) Peptidomimetic macrocycles were diluted from 1 mM stocks (100% DMSO) in sterile water to prepare 400 μM working solutions. The peptidomimetic macrocycles and controls were then diluted 10 or […] or alternatively serially two-fold diluted in assay buffer in dosing plates to provide concentrations of either 40 and 20 μM or between 1.2 and 40 μM, respectively. […]
(§4) Towards the end of the 4 hour incubation time, 22 μl FBS was added to each well for a total concentration of 10% FBS. […] At the end of the incubation period, MTT assay was performed according to manufacturer's instructions (Sigma, catalog #M2128) and absorbance was measured at 560 nm using Dynex Opsys MR Plate reader. […]
A general note: Tetrazolium assays rely on reduction of a dye to a coloured formazan, in cell work by metabolically active cells.

The subject of the next test is A-549. The experiment in a line: MTT cell viability assay, A-549. It is filed as cell-based, human. As to conditions: 20 μM, MTT 48 hrs, FIG. 1. The protocol:
as §2, §3, §4

In the next test the test system is U251. The experiment in a line: MTT cell viability assay, U251. It is filed as cell-based, human. As to conditions: 20 μM, MTT 48 hrs, FIG. 1. How it is done:
as §2, §3, §4

Another test deals with activated hPBLs. The experiment in a line: BrdU cell proliferation assay. It is filed as cell-based, human. Particulars: hPBLs activated by PMA+ionomycin+LPS; 5 or 20 μM, 48 hrs; compared with 1 μM Rapamycin. The protocol:
[…] 1 μM Rapamycin was used as a positive control to inhibit BrdU incorporation. BrdU incorporation was assayed by ELISA according to manufacturer's instructions (Roche, catalog number 11444611001).

The target in another test is Mcl-1. The experiment in a line: Kd, μM | Mcl-1. The source says:
Table printed on a drawing sheet, Figure 27
Head of the field: Kd, μM | Mcl-1
First copying reader's note: The last row (ABT-737) is a small-molecule comparator; the three plots above the table are not copied.
Where the first naming reader finds the target: head: Kd, μM | Mcl-1

Structures are written as SMILES. Numbered stars: 1 amine (or outer) side, 2 acyl side, 3 side chain; on linkers, the order of the positions; unused ones are H or OH. Bridge positions count the residues as written; N and C are the ends. Square brackets hold non-standard residues; d marks the D form. Peptide text beside a SMILES is read from it. ξ: configuration not given here. ξαMeNle(6-ylidene) = CC(CCCC=[*:3])(N[*:1])C(=O)[*:2]; Nle = CCCC[C@H](N)C(=O)O

A word on the EC50: it is the concentration at which the effect is half-maximal. For orientation: Kd means a measure of binding affinity in units of concentration. Read a high Kd as weaker binding.

Turning to `CCCC[C@H](NC(=O)C1(C)CCCC=CCCCC(C)(NC(=O)[C@H](C)NC(=O)[C@H](CC(C)C)NC(=O)[C@H](Cc2c[nH]cn2)NC(=O)[C@H](CCCNC(=N)N)NC(=O)[C@H](C)NC(=O)[C@@H](NC(=O)[C@H](CC(N)=O)NC(=O)[C@H](CCCNC(=N)N)NC(=O)[C@@H](NC(=O)[C@@H](NC(=O)[C@H](CC(=O)O)NC(C)=O)[C@@H](C)CC)[C@@H](C)CC)[C@@H](C)CC)C(=O)N[C@@H](C(C)C)C(=O)NCC(=O)N[C@@H](CC(=O)O)C(=O)N1)C(=O)N[C@@H](CC(=O)O)C(=O)N[C@@H](CCCNC(=N)N)C(=O)N[C@@H](CO)C(=O)N[C@H](C(N)=O)[C@@H](C)CC` (stereo partly drawn) [SP-1] (Ac-DIIRNIARHLA[ξαMeNle(6-ylidene)]VGD[ξαMeNle(6-ylidene)][Nle]DRSI-NH2; staple 12-16), the EC50 in the test with DHL-6 came out at 7 µM; in the test on Jurkat, 2.5 µM; in the test with MDA-MB231-Met, 9.8 µM; in the test with Molt-4 it was 4.3 µM; in the test on NCI-H82 (SCLC-MCL1+), 2.5 µM; with OVCAR8 it was 20 µM. Also, the EC50 with PC3 is 20 µM; in the test on RS4;11, more than 20 µM; with Raji it was 13 µM; in the test on SEMK2, 10 µM. Moreover, the “apoptosis of NCI-H128 (SCLC)” value in the test on NCI-H128 is reported as “induced apoptosis”. Further, the “sensitivity of A-549 (NSCLC)” value with A-549 is “resistant”. Moreover, the “sensitivity of U251 (glioma)” value in the test on U251 was “resistant”. Moreover, the “blocking the proliferation of activated hPBLs (BrdU incorporation)” value in the test with activated hPBLs is “as effective as rapamycin”. At Mcl-1, this molecule showed a Kd of less than 0.1 µM.
